This note sets out measurements from US7317030B2, “Compounds as inhibitors of cell proliferation and viral infections” (4SC AG, priority 2004, dated 2008).

One assay deals with T1, Kv1.3 channels (Mus musculus, UniProt P16390).
T1 construct: expressed in transfected cells; host or cells: L929 cells, stably transfected
Description: Kv1.3 assay, whole-cell patch-clamp in stably transfected L929 cells. The assay is classed as cell-based. The conditions noted are these: c=20 μM, two cells per compound. The protocol: The inhibition of Kv1.3 was measured in stable transfected cell lines expressing mouse Kv1.3 using the patch-clamp technique (Rauer H et al. J Biol Chem Vol. 275, No. 2, 1201-1208, 2000), Rauer H Mol Pharmacol, 50, 1625-1634, 1996, Rauer H et al. J Pharmacol, 127, 1065-1074, 1999).
Stable transfected L929 cells with Kv1.3 channels were grown in DMEM (Glutamax-I) media with 10% FCS, geneticin 330 μg/ml under 10% CO2 atmosphere.
Whole-cell patch-clamp configuration, with an external bath solution of 160 mM NaCl, 4, 5 mM KCl, 1 mM MgCl, 2 mM CaCl2, 5 mM HEPES, 10 mM EGTA and NaOH adjusted to pH 7.4. Internal pipette solution for recording was 155 mM KF, 2 mM MgCl2, 10 mM HEPES, 10 mM EGTA with KOH adjusted to pH 7.2. Currents were activated by a 200-ms voltage step from a holding potential of −80 to 40 mV every 30 s. Holding potential −80 mV.
Each compound was tested on two different cells. The cell was perfused with external bath solution (black line), then the compound was applied (c=20 μM). The resulting stedy-state current traces are shown as red lines. Example 3, 5, 6, 7, 8 are blockers.
Background: Patch clamp records ionic current or voltage across a cell membrane.

In a further assay the target is IMPDH. Kind of assay: IMPDH enzyme assay (NADH release at 340 nm). The conditions noted are these: 0.2 mM IMP, 0.4 mM NAD, 37° C. The assay is classed as biochemical, human. How it is done: IMPDH Enzyme-Assay: For measuring IMPDH activity in vitro, the substrate inosine monophosphate (IMP) and enzyme, with or without inhibitor, are mixed together. […] The released NADH is measured at 340 nm. The assay is performed in PMMA half micro liter cuvettes, the total assay volume is 1 mL. 500 μl of 2× assay buffer (200 mM Tris/HCl, pH 8.0, 200 mM KCl, 6 mM EDTA and 4 mM DTT) are mixed with 10 μL of a freshly prepared 20 mM IMP solution (0.2 mM final concentration) and 10 μL of enzyme (0.03 U/mL). An appropriate amount of inhibitor is dissolved in 100% DMSO. 10 μL of this solution are added to the assay mix (1% DMSO final concentration). Finally 455 μL of deionized water are added to give the final volume of 1 mL. The mixture is incubated for 10 min at 37° C. The enzyme reaction is started by addition of 25 μL of a 16 mM NAD solution (0.4 mM final concentration). Reaction is followed for 30 min at 37° C. at 340 nm. The enzyme reaction runs linear with respect to time during the 30 min. The slopes of the resulting curves are calculated and results are presented in % of residual activity, which is calculated as % activity=(slope with inhibitor/slope without inhibitor) *100. For the determination of the IC50 values (concentration of inhibitor required for 50% inhibition) at least four different inhibitor concentrations were applied. Each data point was recorded in triplicates. […]

The term IC50 denotes the concentration at which inhibition is half-maximal. Lower therefore signals inhibition by little substance.

T1 sequence (P16390 whole entry): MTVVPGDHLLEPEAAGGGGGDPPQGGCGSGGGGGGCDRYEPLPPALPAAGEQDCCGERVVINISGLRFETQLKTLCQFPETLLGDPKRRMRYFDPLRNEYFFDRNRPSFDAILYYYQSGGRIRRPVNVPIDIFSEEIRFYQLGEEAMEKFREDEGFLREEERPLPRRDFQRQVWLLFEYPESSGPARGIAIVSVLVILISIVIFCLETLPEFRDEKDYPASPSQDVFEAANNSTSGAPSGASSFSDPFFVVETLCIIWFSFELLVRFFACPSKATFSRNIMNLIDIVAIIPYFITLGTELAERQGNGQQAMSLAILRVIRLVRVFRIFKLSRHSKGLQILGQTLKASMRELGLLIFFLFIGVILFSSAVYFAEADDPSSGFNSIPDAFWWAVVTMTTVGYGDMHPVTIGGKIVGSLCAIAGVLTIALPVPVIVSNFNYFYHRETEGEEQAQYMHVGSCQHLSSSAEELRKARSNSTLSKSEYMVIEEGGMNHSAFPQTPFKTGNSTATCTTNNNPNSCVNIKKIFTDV

As to `O=C(Nc1ccc(C2=N[C@H](Cc3ccccc3)CO2)cc1)Nc1ccc(S(=O)(=O)NCc2cc(F)c(F)c(F)c2)cc1` [Example 3, 4-{3-[4-(4-(R)-Benzyl-4,5-dihydro-oxazol-2-yl)-phenyl]-ureido}-N-(3,4,5-trifluoro-benzyl)-benzenesulfonamide], the Kv1.3 channel block entry at Kv1.3 channels is reported as “blockers”. Consider `O=C(Nc1cccc(C2=N[C@H](c3ccccc3)CO2)c1)Nc1cccc(C(F)(F)F)c1` [Example 5, 1-[3-(4-(R)-Phenyl-4,5-dihydro-oxazol-2-yl)-phenyl]-3-(3-trifluoromethyl-phenyl)-urea], for which, on Kv1.3 channels, the Kv1.3 channel block result is listed as “blockers”.

In the case of `O=C(Nc1cccc(C2=N[C@@H](c3ccccc3)CO2)c1)Nc1cccc(C(F)(F)F)c1` [Example 6, 1-[3-(4-(S)-Phenyl-4,5-dihydro-oxazol-2-yl)-phenyl]-3-(3-trifluoromethyl-phenyl)-urea], the Kv1.3 channel block result on Kv1.3 channels is listed as “blockers”. Same read-out and setting: the value for `O=C(Nc1cccc(C2=N[C@H](Cc3ccccc3)CO2)c1)Nc1cccc(C(F)(F)F)c1` [Example 7, 1-[3-(4-(R)-Benzyl-4,5-dihydro-oxazol-2-yl)-phenyl]-3-(3-trifluoromethyl-phenyl)-urea] was “blockers”; that for `O=C(Nc1cccc(C2=N[C@@H](Cc3ccccc3)CO2)c1)Nc1cccc(C(F)(F)F)c1` [Example 8, 1-[3-(4-(S)-Benzyl-4,5-dihydro-oxazol-2-yl)-phenyl]-3-(3-trifluoromethyl-phenyl)-urea] was “blockers”. On to `COc1cc(NC(=O)Nc2ccc(S(=O)(=O)N3CCOCC3)cc2)ccc1C#N` [Example 15, 1-(4-Cyano-3-methoxy-phenyl)-3-[4-(morpholine-4-sulfonyl)-phenyl]-urea], for which the IC50 at IMPDH was < 5 µM.
